In ChEMBL document CHEMBL5291721, “A preclinical secondary pharmacology resource illuminates target-adverse drug reaction associations of marketed drugs” (Nat Commun, 2023):

Experiments:
[1] = target: T1, Alpha-2B adrenergic receptor (Homo sapiens, UniProt P18089)
T1 sequence (P18089 whole entry): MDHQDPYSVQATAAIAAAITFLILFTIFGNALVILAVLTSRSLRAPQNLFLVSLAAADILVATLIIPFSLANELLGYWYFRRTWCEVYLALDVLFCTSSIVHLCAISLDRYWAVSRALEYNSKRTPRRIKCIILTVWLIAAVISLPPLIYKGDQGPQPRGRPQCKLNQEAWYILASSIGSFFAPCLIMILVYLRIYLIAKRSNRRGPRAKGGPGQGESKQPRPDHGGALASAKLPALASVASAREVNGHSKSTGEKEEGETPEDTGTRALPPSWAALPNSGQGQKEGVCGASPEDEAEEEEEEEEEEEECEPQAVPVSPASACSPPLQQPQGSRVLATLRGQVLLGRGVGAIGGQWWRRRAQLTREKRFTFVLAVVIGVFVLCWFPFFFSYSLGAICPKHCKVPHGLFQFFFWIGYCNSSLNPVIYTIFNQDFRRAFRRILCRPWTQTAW

[2] = target: T2, Muscarinic acetylcholine receptor M1 (Homo sapiens, UniProt P11229); type: functional, cell-based
T2 sequence (P11229 whole entry): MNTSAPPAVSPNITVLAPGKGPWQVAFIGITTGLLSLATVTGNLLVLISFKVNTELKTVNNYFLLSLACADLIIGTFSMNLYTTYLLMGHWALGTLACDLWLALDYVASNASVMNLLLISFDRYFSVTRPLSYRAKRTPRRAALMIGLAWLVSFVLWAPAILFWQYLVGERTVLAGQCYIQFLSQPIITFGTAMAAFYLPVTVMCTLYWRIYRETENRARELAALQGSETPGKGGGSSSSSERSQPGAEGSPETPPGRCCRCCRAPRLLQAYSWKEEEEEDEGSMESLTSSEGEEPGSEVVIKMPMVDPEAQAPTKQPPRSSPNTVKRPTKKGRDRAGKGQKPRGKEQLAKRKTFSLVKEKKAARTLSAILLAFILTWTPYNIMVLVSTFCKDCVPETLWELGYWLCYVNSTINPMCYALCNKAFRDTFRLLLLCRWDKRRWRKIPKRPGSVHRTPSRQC

[3] = target: T3, Type-1 angiotensin II receptor (Homo sapiens, UniProt P30556)
T3 sequence (P30556 whole entry): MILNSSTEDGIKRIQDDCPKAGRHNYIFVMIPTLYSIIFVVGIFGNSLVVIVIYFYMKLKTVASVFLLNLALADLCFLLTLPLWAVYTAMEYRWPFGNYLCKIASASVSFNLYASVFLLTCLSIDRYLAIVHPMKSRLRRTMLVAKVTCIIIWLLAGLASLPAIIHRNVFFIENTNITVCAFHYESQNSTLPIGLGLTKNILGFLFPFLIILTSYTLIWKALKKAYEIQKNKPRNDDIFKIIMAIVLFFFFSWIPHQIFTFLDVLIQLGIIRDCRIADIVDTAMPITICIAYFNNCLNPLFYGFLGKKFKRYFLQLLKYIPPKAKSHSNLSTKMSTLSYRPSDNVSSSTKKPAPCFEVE

[4] = target: Prostaglandin G/H synthase 1 (Homo sapiens, UniProt P23219); type: functional
[5] = target: Growth hormone secretagogue receptor type 1 (Homo sapiens, UniProt Q92847)
[6] = target: Kappa-type opioid receptor (Homo sapiens, UniProt P41145)
D(3) dopamine receptor = D(3) dopamine receptor (Homo sapiens, UniProt P35462)
[7] = target: T4, Alpha-1A adrenergic receptor (Homo sapiens, UniProt P35348); type: functional, cell-based
T4 sequence (P35348 whole entry): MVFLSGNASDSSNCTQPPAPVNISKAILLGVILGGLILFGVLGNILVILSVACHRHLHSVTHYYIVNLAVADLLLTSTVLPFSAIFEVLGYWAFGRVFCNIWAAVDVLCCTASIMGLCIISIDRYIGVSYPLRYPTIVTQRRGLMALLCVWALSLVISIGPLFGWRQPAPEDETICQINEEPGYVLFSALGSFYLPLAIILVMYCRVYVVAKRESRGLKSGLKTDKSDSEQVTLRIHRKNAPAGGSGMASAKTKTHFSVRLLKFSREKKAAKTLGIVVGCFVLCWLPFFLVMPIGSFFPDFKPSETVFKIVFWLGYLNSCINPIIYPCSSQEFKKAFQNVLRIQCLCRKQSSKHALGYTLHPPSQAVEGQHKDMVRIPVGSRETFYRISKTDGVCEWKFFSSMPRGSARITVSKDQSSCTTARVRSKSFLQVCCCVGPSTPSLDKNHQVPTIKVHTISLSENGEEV

[8] = target: Delta-type opioid receptor (Homo sapiens, UniProt P41143)
[9] = target: T5, Sodium-dependent noradrenaline transporter (Homo sapiens, UniProt P23975)
Mu-type opioid receptor [10] = target: T6, Mu-type opioid receptor (Homo sapiens, UniProt P35372)
[11] = target: T5, Sodium-dependent noradrenaline transporter; remark: listed apart in the source
[12] = target: Glutamate receptor ionotropic, NMDA 1 (Rattus norvegicus, UniProt P35439)
[13] = target: T7, Cholecystokinin receptor type A (Homo sapiens, UniProt P32238)
T7 sequence (P32238 whole entry): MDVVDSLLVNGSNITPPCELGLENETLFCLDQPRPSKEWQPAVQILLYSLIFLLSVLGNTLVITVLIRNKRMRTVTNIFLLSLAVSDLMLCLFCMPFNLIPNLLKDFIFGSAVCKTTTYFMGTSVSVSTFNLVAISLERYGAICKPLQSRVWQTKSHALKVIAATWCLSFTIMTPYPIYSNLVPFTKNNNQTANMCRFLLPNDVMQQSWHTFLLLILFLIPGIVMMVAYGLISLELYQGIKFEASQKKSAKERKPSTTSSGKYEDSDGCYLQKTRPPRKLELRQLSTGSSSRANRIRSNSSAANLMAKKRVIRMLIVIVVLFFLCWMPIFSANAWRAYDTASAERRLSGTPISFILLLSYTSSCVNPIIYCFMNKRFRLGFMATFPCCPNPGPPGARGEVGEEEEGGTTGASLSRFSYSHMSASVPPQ

Mu-type opioid receptor [14] = target: T6, Mu-type opioid receptor; remark: listed apart in the source
Also: assay procedure not described here.

T5 sequence (P23975 whole entry): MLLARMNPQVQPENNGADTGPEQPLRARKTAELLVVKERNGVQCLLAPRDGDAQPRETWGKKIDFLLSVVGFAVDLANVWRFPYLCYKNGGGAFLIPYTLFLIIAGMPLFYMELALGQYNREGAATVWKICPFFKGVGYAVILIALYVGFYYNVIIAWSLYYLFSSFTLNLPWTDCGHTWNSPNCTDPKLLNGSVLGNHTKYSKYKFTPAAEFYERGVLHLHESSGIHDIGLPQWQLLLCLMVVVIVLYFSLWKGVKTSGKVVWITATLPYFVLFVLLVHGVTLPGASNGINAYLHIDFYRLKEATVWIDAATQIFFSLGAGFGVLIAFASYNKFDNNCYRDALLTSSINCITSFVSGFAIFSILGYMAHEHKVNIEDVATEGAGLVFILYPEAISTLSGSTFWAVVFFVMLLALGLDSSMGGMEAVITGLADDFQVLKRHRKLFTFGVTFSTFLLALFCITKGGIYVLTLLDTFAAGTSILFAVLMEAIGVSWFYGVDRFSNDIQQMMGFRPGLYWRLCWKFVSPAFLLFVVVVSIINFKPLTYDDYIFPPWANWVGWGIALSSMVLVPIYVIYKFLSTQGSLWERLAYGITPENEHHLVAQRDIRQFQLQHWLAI
Chain of D(3) dopamine receptor (P35462 whole entry): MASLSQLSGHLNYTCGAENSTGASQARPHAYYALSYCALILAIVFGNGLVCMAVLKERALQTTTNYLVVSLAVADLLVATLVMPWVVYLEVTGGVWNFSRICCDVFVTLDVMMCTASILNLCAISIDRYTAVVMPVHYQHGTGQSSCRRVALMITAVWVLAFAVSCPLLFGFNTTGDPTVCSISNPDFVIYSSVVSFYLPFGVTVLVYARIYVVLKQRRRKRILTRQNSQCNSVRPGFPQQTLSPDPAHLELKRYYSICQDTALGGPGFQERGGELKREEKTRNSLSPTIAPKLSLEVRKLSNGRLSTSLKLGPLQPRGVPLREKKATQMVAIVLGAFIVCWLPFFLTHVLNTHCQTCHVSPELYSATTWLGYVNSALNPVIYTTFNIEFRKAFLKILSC
T6 sequence (P35372 whole entry): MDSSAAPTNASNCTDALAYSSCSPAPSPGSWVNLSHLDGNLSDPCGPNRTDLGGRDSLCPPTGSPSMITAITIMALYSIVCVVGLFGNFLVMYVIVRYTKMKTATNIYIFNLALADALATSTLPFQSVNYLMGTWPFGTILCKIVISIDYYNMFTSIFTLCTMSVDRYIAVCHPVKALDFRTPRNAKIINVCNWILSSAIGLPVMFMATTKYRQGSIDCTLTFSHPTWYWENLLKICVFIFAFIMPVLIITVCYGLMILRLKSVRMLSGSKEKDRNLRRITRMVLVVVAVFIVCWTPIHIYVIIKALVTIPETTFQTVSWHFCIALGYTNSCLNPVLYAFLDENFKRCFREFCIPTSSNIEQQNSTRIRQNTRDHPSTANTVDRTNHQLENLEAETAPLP
Chain of Prostaglandin G/H synthase 1 (P23219 whole entry): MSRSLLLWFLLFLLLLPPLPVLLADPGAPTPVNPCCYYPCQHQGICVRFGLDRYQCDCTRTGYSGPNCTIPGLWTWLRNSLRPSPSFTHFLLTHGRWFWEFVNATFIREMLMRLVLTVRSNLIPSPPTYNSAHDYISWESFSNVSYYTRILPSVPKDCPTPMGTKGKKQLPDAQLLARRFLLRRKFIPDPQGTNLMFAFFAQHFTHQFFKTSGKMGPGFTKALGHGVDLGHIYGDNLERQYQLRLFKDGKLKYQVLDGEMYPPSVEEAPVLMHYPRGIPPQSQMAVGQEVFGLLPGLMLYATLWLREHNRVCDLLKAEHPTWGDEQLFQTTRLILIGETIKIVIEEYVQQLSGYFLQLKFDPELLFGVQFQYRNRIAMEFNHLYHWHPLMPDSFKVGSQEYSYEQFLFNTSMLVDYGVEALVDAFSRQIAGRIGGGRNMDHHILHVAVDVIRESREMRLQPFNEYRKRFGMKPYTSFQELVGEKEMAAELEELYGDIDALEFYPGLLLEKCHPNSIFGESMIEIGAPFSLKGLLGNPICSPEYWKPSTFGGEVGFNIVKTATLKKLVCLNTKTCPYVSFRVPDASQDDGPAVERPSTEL
Chain of Kappa-type opioid receptor (P41145 whole entry): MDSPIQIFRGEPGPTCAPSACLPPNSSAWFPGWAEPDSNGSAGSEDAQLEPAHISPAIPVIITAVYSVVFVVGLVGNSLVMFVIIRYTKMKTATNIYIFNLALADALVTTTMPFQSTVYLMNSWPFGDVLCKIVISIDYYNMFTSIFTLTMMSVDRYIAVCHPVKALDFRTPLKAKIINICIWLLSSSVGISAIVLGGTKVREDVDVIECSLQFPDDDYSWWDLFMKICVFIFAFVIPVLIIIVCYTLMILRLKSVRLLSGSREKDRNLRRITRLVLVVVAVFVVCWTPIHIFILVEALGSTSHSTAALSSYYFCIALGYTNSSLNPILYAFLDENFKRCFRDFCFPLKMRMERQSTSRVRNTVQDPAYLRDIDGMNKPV
Chain of Growth hormone secretagogue receptor type 1 (Q92847 whole entry): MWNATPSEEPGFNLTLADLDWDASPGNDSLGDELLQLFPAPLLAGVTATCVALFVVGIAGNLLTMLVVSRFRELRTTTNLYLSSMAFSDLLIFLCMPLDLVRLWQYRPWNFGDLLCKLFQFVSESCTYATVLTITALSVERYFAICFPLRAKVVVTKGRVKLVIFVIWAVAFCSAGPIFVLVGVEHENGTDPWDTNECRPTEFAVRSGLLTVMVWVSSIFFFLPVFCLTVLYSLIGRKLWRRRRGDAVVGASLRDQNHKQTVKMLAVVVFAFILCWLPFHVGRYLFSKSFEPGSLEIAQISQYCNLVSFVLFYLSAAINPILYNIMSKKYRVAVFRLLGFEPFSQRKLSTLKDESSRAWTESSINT
Chain of Delta-type opioid receptor (P41143 whole entry): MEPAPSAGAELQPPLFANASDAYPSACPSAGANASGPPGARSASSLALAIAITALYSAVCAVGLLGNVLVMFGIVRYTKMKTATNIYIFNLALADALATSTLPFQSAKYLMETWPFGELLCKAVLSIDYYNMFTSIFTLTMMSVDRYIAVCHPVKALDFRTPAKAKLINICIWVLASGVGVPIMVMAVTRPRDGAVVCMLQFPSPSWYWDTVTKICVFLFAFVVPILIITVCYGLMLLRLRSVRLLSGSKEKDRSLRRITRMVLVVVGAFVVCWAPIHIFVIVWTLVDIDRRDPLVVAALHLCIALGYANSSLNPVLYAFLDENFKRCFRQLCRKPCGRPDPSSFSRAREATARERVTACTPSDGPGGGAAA

SMILES | AC50 [1] [µM] | AC50 [2] [µM] | AC50 [3] [µM] | AC50 [4] [µM] | AC50 [5] [µM] | AC50 [6] [µM] | AC50 (D(3) dopamine receptor) [µM] | AC50 [7] [µM] | AC50 [8] [µM] | AC50 [9] [µM] | AC50 (Mu-type opioid receptor [10]) [µM] | AC50 [11] [µM] | AC50 [12] [µM] | AC50 [13] [µM] | AC50 (Mu-type opioid receptor [14]) [µM]
C[C@@H]1C[C@H]2[C@@H]3C[C@H](F)C4=CC(=O)C=C[C@]4(C)[C@@]3(F)[C@@H](O)C[C@]2(C)[C@@]1(OC(=O)c1ccco1)C(=O)SCF [FLUTICASONE FUROATE] | > 10 | > 30 | > 10 | 9.89 | > 10 | > 10 | > 30 | > 30 | > 30 | > 10 | > 30 | > 30 | > 10 | > 10 | > 30
Cc1oc(=O)oc1COC(=O)[C@@H]1N2C(=O)[C@@H](NC(=O)[C@H](N)c3ccccc3)[C@H]2SC1(C)C [LENAMPICILLIN] | – | > 30 | – | > 30 | – | – | > 30 | – | – | – | – | > 30 | – | – | > 30
COc1ccc(OC)c(C(O)C(C)N)c1 (stereo not given) [METHOXAMINE] | – | > 30 | – | > 30 | – | – | > 30 | – | – | – | – | > 30 | – | – | > 30
CC1(CCN2CCCCC2)C(=O)CCc2ccccc21 (stereo not given) [NEPINALONE] | – | > 30 | – | > 30 | – | – | > 30 | – | – | – | – | > 30 | – | – | > 30
COC(=O)C[C@](O)(CCCC(C)(C)O)C(=O)O[C@@H]1C(OC)=C[C@]23CCCN2CCc2cc4c(cc2[C@H]13)OCO4 [OMACETAXINE MEPESUCCINATE] | – | > 30 | – | > 30 | – | – | > 30 | – | – | – | – | > 30 | – | – | > 30
COc1cccc(C(=O)CCN[C@@H](C)[C@H](O)c2ccccc2)c1 [OXYFEDRINE] | – | > 30 | – | > 30 | – | – | 0.382 | – | – | – | – | 2.65 | – | – | 2.7
CC[N+](C)(CC)CCOC(=O)C(O)(c1ccccc1)C1CCCCC1 (stereo not given) [OXYPHENONIUM] | – | > 30 | – | > 30 | – | – | > 30 | – | – | – | – | > 30 | – | – | > 30
C[C@@H]1C[C@H]2[C@@H]3C[C@H](F)C4=CC(=O)C=C[C@]4(C)[C@H]3[C@@H](O)C[C@]2(C)[C@@]1(O)C(=O)CO [PARAMETHASONE] | – | > 30 | – | > 30 | – | – | > 30 | – | – | – | – | > 30 | – | – | > 30
CCC[C@H](N[C@@H](C)C(=O)N1[C@H](C(=O)O)C[C@@H]2CCCC[C@@H]21)C(=O)OCC [PERINDOPRIL] | – | > 30 | – | > 30 | – | – | > 30 | – | – | – | – | > 30 | – | – | > 30
N[C@@H](Cc1ccccc1)C(=O)O [PHENYLALANINE] | – | > 30 | – | > 30 | – | – | > 30 | – | – | – | – | > 30 | – | – | > 30
CCCn1cnc2c1c(=O)n(CCCCC(C)=O)c(=O)n2C [PROPENTOFYLLINE] | – | > 30 | – | > 30 | – | – | > 30 | – | – | – | – | > 30 | – | – | > 30
Clc1ccc(C(Cn2ccnc2)OCc2csc3c(Cl)cccc23)c(Cl)c1 (stereo not given) [SERTACONAZOLE] | – | > 30 | – | 5.34 | – | – | 1.78 | – | – | – | – | 3.3 | – | – | 3.59
CC(OCCN1CCCCCC1)(c1ccccc1)c1ccc(Cl)cc1 (stereo not given) [SETASTINE] | – | > 30 | – | > 30 | – | – | 0.432 | – | – | – | – | 5.82 | – | – | 3.66
COc1cc(C)c2c(Oc3cccc(C(F)(F)F)c3)c(OC)cc(NC(C)CCCN)c2n1 (stereo not given) [TAFENOQUINE] | – | > 3 | – | 3.81 | – | – | 2.57 | – | – | – | – | 2.26 | – | – | 20.6
CCCSc1nc(N[C@@H]2C[C@H]2c2ccc(F)c(F)c2)c2nnn([C@@H]3C[C@H](OCCO)[C@@H](O)[C@H]3O)c2n1 [TICAGRELOR] | – | > 30 | – | 26.2 | – | – | 20.5 | – | – | – | – | 14.8 | – | – | > 30
c1ccc2c(SC3=NCCN3)c[nH]c2c1 [TINAZOLINE] | – | > 30 | – | > 30 | – | – | > 30 | – | – | – | – | 5.56 | – | – | > 30
